The record followed here is patent US20230248834A1, “DEGRADATION OF (EGFR) BY CONJUGATION OF EGFR INHIBITORS WITH E3 LIGASE LIGAND AND METHODS OF USE” (BEIGENE, LTD., priority 2020, published 2023).

Assay [1] concerns the target T1, EGFR L858R/T790M/C797S (Homo sapiens, UniProt P00533, C797S/L858R/T790M).
T1 construct: expressed in transfected cells; host or cells: BaF3-LTC
In words: EGFR degradation HTRF assay in BaF3-LTC cells. The assay is classed as cell-based. The conditions noted are these: BaF3-LTC (L858R/T790M/C797S), maximum percentage of inhibition (degradation); read-out: BaF3-LTC Dmax (%). Summed up:
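BaF3 cells expressing EGFR L858R/C797S or L858R/T790M/C797S treated 16 h at 37 °C with compounds (top 10 uM, 5-fold, 8 doses; 0.2% DMSO). Remaining EGFR quantified by HTRF in lysates after overnight antibody incubation. Degradation percentage versus DMSO controls; DC50 from four-parameter fit, Dmax as maximal degradation.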

Assay [2] has as its target T2, EGFR L858R/C797S (Homo sapiens, UniProt P00533, C797S/L858R).
T2 construct: expressed in transfected cells; host or cells: BaF3 LC
The assay is described as follows: EGFR degradation HTRF assay in BaF3 LC cells. It is filed as cell-based. The settings on record: BaF3 LC (L858R/C797S), maximum percentage of inhibition (degradation); read-out: BaF3 LC Dmax (%). The procedure:
BaF3-LTC(L858R/T790M/C797S) cells and BaF3 LC(L858R/C797S) cells are treated with compounds diluted in 0.2% DMSO cell culture medium and incubate for 16 h, 37° C., 5% CO2. the final concentration of compounds in all assay is start with 10 uM, 5-fold dilution, total 8 doses were included.
After 16 h treatment, add HTRF lysis buffer to each well; seal the plate and incubate 1 hour at room temperature on a plate shaker; Once the cells are lysed, 16 μL of cell lysate are transferred to a PE 384-well HTRF detection plate; 4 μL of pre-mixed HTRF antibodies are added to each well; Cover the plate with a plate sealer, spin 1000 rpm for 1 min, Incubate overnight at room temperature; Read on BMG PheraStar with HTRF protocol (337 nm-665 nm-620 nm).
The inhibition (degradation) percentage of the compound was calculated by the following equation: Inhibition percentage of Compound=100−100×(Signal−low control)/(High control−low control), wherein signal=each test compound group
High control=Cell group with added DMSO and without compound, indicating microplate readings without EGFR degradation;
Dmax is the maximum percentage of inhibition (degradation).
The IC50 (DC50) value of a compound can be obtained by fitting the following equation
Y=Bottom+(TOP−Bottom)/(1+((IC50/X)^hillslope))
Wherein, X and Y are known values, and IC50, Hillslope, Top and Bottom are the parameters obtained by fitting with software. Y is the inhibition percentage (calculated from the equation), X is the concentration of the compound; IC50 is the concentration of the compound when the 50% inhibition is reached. The smaller the IC50 value is, the stronger the inhibitory ability of the compound is. Vice versa, the higher the IC50 value is, the weaker the inhibitory ability of the compound is; Hillslope represents the slope of the fitted curve, generally around 1*; Bottom represents the minimum value of the curve obtained by data fitting, which is generally 0%±20%; Top represents the maximum value of the curve obtained by data fitting, which is generally 100%±20%. The experimental data were fitted by calculating and analyzing with Dotmatics data analysis software.

T2 sequence (P00533 25-1210 C797S/L858R): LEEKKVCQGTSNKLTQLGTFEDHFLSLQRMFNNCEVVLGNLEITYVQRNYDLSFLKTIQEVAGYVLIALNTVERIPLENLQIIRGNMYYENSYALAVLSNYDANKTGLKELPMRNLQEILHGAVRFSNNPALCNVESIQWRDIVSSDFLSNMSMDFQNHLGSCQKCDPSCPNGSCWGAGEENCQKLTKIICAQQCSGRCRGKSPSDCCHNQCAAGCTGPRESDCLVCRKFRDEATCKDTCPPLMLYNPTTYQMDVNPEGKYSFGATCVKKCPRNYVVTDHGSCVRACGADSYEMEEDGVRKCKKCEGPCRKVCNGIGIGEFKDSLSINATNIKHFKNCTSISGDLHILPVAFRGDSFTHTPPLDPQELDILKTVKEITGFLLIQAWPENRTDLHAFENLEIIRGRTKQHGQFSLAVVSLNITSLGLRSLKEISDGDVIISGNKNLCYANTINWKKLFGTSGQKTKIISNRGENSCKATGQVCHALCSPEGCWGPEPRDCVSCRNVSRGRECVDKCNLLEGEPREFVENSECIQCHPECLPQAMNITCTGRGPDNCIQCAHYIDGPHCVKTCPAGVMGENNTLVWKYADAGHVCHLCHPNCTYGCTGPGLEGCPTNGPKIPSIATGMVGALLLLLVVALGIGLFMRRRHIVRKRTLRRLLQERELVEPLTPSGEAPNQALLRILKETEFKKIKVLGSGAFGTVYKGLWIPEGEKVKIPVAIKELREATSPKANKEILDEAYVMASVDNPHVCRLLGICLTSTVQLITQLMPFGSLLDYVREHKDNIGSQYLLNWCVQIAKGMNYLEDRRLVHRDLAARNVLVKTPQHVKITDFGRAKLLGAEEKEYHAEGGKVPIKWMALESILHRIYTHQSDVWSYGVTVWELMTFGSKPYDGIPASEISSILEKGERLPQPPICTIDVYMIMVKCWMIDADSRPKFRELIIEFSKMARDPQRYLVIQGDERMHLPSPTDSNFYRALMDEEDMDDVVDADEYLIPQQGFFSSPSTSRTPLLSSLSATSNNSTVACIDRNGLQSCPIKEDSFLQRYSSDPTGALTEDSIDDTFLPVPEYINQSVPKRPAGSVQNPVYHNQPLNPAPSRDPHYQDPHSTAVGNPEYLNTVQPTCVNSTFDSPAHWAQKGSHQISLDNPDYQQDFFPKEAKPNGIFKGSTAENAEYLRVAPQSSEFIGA
T1 sequence (P00533 25-1210 T790M/C797S/L858R): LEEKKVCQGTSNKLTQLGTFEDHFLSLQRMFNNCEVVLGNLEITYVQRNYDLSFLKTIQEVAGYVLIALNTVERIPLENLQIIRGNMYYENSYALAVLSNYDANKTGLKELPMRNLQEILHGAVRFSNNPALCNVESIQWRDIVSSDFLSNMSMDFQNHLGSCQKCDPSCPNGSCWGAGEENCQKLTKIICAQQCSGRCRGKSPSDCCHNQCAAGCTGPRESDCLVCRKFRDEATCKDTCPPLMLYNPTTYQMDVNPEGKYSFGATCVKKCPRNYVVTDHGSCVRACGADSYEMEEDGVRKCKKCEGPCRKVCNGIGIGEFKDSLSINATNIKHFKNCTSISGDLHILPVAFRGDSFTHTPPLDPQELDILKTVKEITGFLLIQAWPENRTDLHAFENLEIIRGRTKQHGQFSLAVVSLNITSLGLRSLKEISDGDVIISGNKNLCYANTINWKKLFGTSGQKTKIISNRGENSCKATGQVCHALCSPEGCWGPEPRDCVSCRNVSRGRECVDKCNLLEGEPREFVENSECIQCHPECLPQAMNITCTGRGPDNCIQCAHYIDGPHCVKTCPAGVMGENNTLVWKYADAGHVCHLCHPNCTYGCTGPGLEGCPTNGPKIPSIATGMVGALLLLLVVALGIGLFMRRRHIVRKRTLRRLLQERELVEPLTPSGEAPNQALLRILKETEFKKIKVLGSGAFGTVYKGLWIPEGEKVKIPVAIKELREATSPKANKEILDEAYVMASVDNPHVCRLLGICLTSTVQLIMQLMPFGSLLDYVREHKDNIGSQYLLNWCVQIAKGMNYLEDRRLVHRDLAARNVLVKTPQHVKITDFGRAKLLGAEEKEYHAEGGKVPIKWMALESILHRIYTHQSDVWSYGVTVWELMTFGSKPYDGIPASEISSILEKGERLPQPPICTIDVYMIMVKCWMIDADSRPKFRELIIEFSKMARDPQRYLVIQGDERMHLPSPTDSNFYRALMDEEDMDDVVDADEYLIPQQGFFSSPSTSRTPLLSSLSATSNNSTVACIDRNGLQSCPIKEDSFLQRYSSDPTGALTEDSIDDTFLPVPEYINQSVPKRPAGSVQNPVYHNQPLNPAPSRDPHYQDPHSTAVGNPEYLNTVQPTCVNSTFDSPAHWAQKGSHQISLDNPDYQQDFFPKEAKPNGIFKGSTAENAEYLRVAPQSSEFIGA

As for `CCOc1cc(N2CCC(N3CCN(CCc4cc(F)c([C@H]5CCC(=O)NC5=O)c(F)c4)CC3)CC2)c(CC)cc1Nc1ncc(Br)c(Nc2ccc3nc(CC)ncc3c2P(C)(C)=O)n1` [Example 460, (R)-3-(4-(2-(4-(1-(4-((5-bromo-4-((5-(dimethylphosphoryl)-2-ethylquinazolin-6-yl)amino)pyrimidin-2-yl)amino)-5-ethoxy-2-ethylphenyl)piperidin-4-yl)piperazin-1-yl)ethyl)-2,6-difluorophenyl)piperidine-2,6-dione], the Dmax amounted to 82.5% in assay [1] and 88.2% in assay [2].
Taken in the same sequence, the figures for `CCOc1cc(N2CCC(N3CCN(CCc4cccc5c4C(C)(C)C(=O)N5C4CCC(=O)NC4=O)CC3)CC2)c(CC)cc1Nc1ncc(Br)c(Nc2ccc3nc(CC)ccc3c2P(C)(C)=O)n1` (stereo not drawn) [Example 572, 3-(4-(2-(4-(1-(4-((5-bromo-4-((5-(dimethylphosphoryl)-2-ethylquinolin-6-yl)amino)pyrimidin-2-yl)amino)-5-ethoxy-2-ethylphenyl)piperidin-4-yl)piperazin-1-yl)ethyl)-3,3-dimethyl-2-oxoindolin-1-yl)piperidine-2,6-dione] were 90.3% and 91.8%.
For `CCOc1cc(N2CCC(N3CCN(CCc4cc(F)cc5c4n(C)c(=O)n5C4CCC(=O)NC4=O)CC3)CC2)c(CC)cc1Nc1ncc(Br)c(Nc2ccc3nc(CC)ccc3c2P(C)(C)=O)n1` (stereo not drawn) [Example 462, 3-(4-(2-(4-(1-(4-((5-bromo-4-((5-(dimethylphosphoryl)-2-ethylquinolin-6-yl)amino)pyrimidin-2-yl)amino)-5-ethoxy-2-ethylphenyl)piperidin-4-yl)piperazin-1-yl)ethyl)-6-fluoro-3-methyl-2-oxo-2,3-dihydro-1H-benzo[d]imidazol-1-yl)piperidine-2,6-dione], in that order: 84.5% and 89.9%.
Taken in the same sequence, the figures for `CCOc1cc(N2CCC(N3CCN(CCc4cccc5c4n(CC)c(=O)n5C4CCC(=O)NC4=O)CC3)CC2)c(CC)cc1Nc1ncc(Br)c(Nc2ccc3nc(CC)ccc3c2P(C)(C)=O)n1` (stereo not drawn) [Example 504, 3-(4-(2-(4-(1-(4-((5-bromo-4-((5-(dimethylphosphoryl)-2-ethylquinolin-6-yl)amino)pyrimidin-2-yl)amino)-5-ethoxy-2-ethylphenyl)piperidin-4-yl)piperazin-1-yl)ethyl)-3-ethyl-2-oxo-2,3-dihydro-1H-benzo[d]imidazol-1-yl)piperidine-2,6-dione] were 89% and 86%.
As to `CCc1cc(Nc2ncc(Br)c(Nc3ccc4c(=O)n(C)ncc4c3P(C)(C)=O)n2)c(OC)cc1N1CCC(N2CCN(CCc3cccc4c3C3(CC3)C(=O)N4C3CCC(=O)NC3=O)CC2)CC1` (stereo not drawn) [Example 756, 3-(4′-(2-(4-(1-(4-((5-bromo-4-((5-(dimethylphosphoryl)-2-methyl-1-oxo-1,2-dihydrophthalazin-6-yl)amino)pyrimidin-2-yl)amino)-2-ethyl-5-methoxyphenyl)piperidin-4-yl)piperazin-1-yl)ethyl)-2′-oxospiro[cyclopropane-1,3′-indolin]-1′-yl)piperidine-2,6-dione], the results for the greatest degradation seen (Dmax) in assay [1] and in assay [2] were 97% and 94.5%, respectively.
Taken in the same sequence, the figures for `CCOc1cc(N2CCC(N3CCN(CCc4c(F)ccc5c4n(C)c(=O)n5C4CCC(=O)NC4=O)CC3)CC2)c(CC)cc1Nc1ncc(Br)c(Nc2ccc3nc(CC)ccc3c2P(C)(C)=O)n1` (stereo not drawn) [Example 503, 3-(4-(2-(4-(1-(4-((5-bromo-4-((5-(dimethylphosphoryl)-2-ethylquinolin-6-yl)amino)pyrimidin-2-yl)amino)-5-ethoxy-2-ethylphenyl)piperidin-4-yl)piperazin-1-yl)ethyl)-5-fluoro-3-methyl-2-oxo-2,3-dihydro-1H-benzo[d]imidazol-1-yl)piperidine-2,6-dione] were 90.2% and 88.9%.
For `CCc1ccc2c(P(C)(C)=O)c(Nc3nc(Nc4cc(CC)c(N5CCC(N6CCN(C(=O)[C@H]7CN(c8cc(F)c([C@H]9CCC(=O)NC9=O)c(F)c8)CC7(C)C)CC6)CC5)cc4OC)ncc3Br)ccc2n1` [Example 754, (R)-3-(4-((R)-4-(4-(1-(4-((5-bromo-4-((5-(dimethylphosphoryl)-2-ethylquinolin-6-yl)amino)pyrimidin-2-yl)amino)-2-ethyl-5-methoxyphenyl)piperidin-4-yl)piperazine-1-carbonyl)-3,3-dimethylpyrrolidin-1-yl)-2,6-difluorophenyl)piperidine-2,6-dione], in that order: 96.3% and 87.3%.
For `CCc1cc(Nc2ncc(Br)c(Nc3ccc4nc(C)c(F)cc4c3P(C)(C)=O)n2)c(OC)cc1N1CCC(N2CCN(C(=O)[C@H]3CN(c4cc(F)c([C@H]5CCC(=O)NC5=O)c(F)c4)CC3(C)C)CC2)CC1` [Example 576, (R)-3-(4-((R)-4-(4-(1-(4-((5-bromo-4-((5-(dimethylphosphoryl)-3-fluoro-2-methylquinolin-6-yl)amino)pyrimidin-2-yl)amino)-2-ethyl-5-methoxyphenyl)piperidin-4-yl)piperazine-1-carbonyl)-3,3-dimethylpyrrolidin-1-yl)-2,6-difluorophenyl)piperidine-2,6-dione], in that order: 92.2% and 95.9%.
As for `CCOc1cc(N2CCC(N3CCN(CCc4cc(F)c([C@H]5CCC(=O)NC5=O)c(F)c4)CC3)CC2)c(CC)cc1Nc1ncc(Br)c(Nc2ccc3c(=O)n(C)ncc3c2P(C)(C)=O)n1` [Example 502, (R)-3-(4-(2-(4-(1-(4-((5-bromo-4-((5-(dimethylphosphoryl)-2-methyl-1-oxo-1,2-dihydrophthalazin-6-yl)amino)pyrimidin-2-yl)amino)-5-ethoxy-2-ethylphenyl)piperidin-4-yl)piperazin-1-yl)ethyl)-2,6-difluorophenyl)piperidine-2,6-dione], the Dmax in assay [1] worked out at 96.7%; in assay [2] it was 87.6%.
For `CCOc1cc(N2CCC(N3CCN(CCc4cccc5c4oc(=O)n5C4CCC(=O)NC4=O)CC3)CC2)c(CC)cc1Nc1ncc(Br)c(Nc2cc(F)c3nc(CC)ccc3c2P(C)(C)=O)n1` (stereo not drawn) [Example 493, 3-(7-(2-(4-(1-(4-((5-bromo-4-((5-(dimethylphosphoryl)-2-ethyl-8-fluoroquinolin-6-yl)amino)pyrimidin-2-yl)amino)-5-ethoxy-2-ethylphenyl)piperidin-4-yl)piperazin-1-yl)ethyl)-2-oxobenzo[d]oxazol-3(2H)-yl)piperidine-2,6-dione], the Dmax in assay [1] was 95.2%; in assay [2] it was 87.1%.
For `CCc1cc(Nc2ncc(Br)c(Nc3ccc4nc(C)ccc4c3P(C)(C)=O)n2)c(OC)cc1N1CCC(N2CCN(C(=O)[C@H]3CN(c4cc(F)c([C@H]5CCC(=O)NC5=O)c(F)c4)CC3(C)C)CC2)CC1` [Example 487, (R)-3-(4-((R)-4-(4-(1-(4-((5-bromo-4-((5-(dimethylphosphoryl)-2-methylquinolin-6-yl)amino)pyrimidin-2-yl)amino)-2-ethyl-5-methoxyphenyl)piperidin-4-yl)piperazine-1-carbonyl)-3,3-dimethylpyrrolidin-1-yl)-2,6-difluorophenyl)piperidine-2,6-dione], in that order: 98% and 95.6%.
For `CCc1ncc2c(P(C)(C)=O)c(Nc3nc(Nc4cc(CC)c(N5CCC(N6CCN(C(=O)[C@@H]7CCN(c8cc(F)c([C@H]9CCC(=O)NC9=O)c(F)c8)C7)CC6)CC5)cc4OC)ncc3Br)ccc2n1` [Example 549, (R)-3-(4-((R)-3-(4-(1-(4-((5-bromo-4-((5-(dimethylphosphoryl)-2-ethylquinazolin-6-yl)amino)pyrimidin-2-yl)amino)-2-ethyl-5-methoxyphenyl)piperidin-4-yl)piperazine-1-carbonyl)pyrrolidin-1-yl)-2,6-difluorophenyl)piperidine-2,6-dione], in that order: 90.4% and 87.2%.
